Measurements taken from patent publication US8846570B2, “Herbicidal compositions comprising 4-amino-3-chloro-5-fluoro-6-(4-chloro-2-fluoro-3-methoxyphenyl)pyridine-2-carboxylic acid or a derivative thereof and microtubule inhibiting herbicides” (Dow AgroSciences LLC, priority 2012, dated 2014).

What was measured:
[1] = tested on: Leptochloa chinensis (L.) Nees (LEFCH); test: Postemergence foliar-applied, direct seeded rice, greenhouse: visual weed control; type: in vivo; conditions: 19 DAA
Source text: Seeds or nutlets of the desired test plant species were planted in a soil matrix prepared by mixing a loam or sandy loam soil (e.g., 28.6 percent silt, 18.8 percent clay, and 52.6 percent sand, with a pH of about 5.8 and an organic matter content of about 1.8 percent) and calcareous grit in an 80 to 20 ratio. The soil matrix was contained in plastic pots with a volume of 1 quart and a surface area of 83.6 cm^2. When required to ensure good germination and healthy plants, a fungicide treatment and/or other chemical or physical treatment was applied. The plants were grown for 8-22 days in a greenhouse with an approximate 14 h photoperiod which was maintained at about 29° C. during the day and 26° C. during the night. Nutrients (Peters Excel® 15-5-15 5-Ca 2-Mg and iron chelate) were applied in the irrigation solution as needed and water was added on a regular basis. Supplemental lighting was provided with overhead metal halide 1000-Watt lamps as necessary. The plants were employed for testing when they reached the first through fourth true leaf stage.
Treatments consisted of the acid or esters of 4-amino-3-chloro-5-fluoro-6-(4-chloro-2-fluoro-3-methoxy-phenyl)pyridine-2-carboxylic acid (Compound A), each formulated as an SC (suspension concentrate), and various herbicidal components alone and in combination. Forms of compound A were applied on an acid equivalent basis.
Treatment requirements were calculated based upon the rates being tested, the concentration of active ingredient or acid equivalent in the formulation, and a 12 mL application volume at a rate of 187 L/ha.
For treatments comprised of formulated compounds, measured amounts of compounds were placed individually in 25 mL glass vials and diluted in a volume of 1.25% (v/v) Agri-Dex® crop oil concentrated to obtain 12× stock solutions. […] Application solutions were prepared by adding an appropriate amount of each stock solution (e.g., 1 mL) and diluted to the appropriate final concentrations with the addition of 10 mL of an aqueous mixture of 1.25% (v/v) crop oil concentrate so that the final spray solutions contained 1.25+/−0.05% (v/v) crop oil concentrate.
As required, additional water and/or 97:3 v/v acetone/DMSO was added to individual application solutions so that the final acetone and DMSO concentrations of the application solutions being compared were 8.1% and 0.25%, respectively.
All stock solutions and applications solutions were visually inspected for compound compatibility prior to application. Spray solutions were applied to the plant material with an overhead Mandel track sprayer equipped with a 8002E nozzles calibrated to deliver 187 L/ha over an application area of 0.503 m^2 at a spray height of 18 to 20 inches (46 to 50 cm) above average plant canopy height. Control plants were sprayed in the same manner with the solvent blank.
The treated plants and control plants were placed in a greenhouse as described above and watered by sub-irrigation to prevent wash-off of the test compounds. After approximately 3 weeks, the condition of the test plants as compared with that of the untreated plants was determined visually and scored on a scale of 0 to 100 percent where 0 corresponds to no injury or growth inhibition and 100 corresponds to complete kill.
(§1) Colby's equation was used to determine the herbicidal effects expected from the mixtures (Colby, S. R. 1967. Calculation of the synergistic and antagonistic response of herbicide combinations. Weeds 15:20-22.).
(§2) The following equation was used to calculate the expected activity of mixtures containing two active ingredients, A and B: Expected=A+B−(A×B/100)

[2] = tested on: Ipomoea hederacea (L.) Jacq. (IPOHE); test: Pre-emergence soil-applied, greenhouse: visual weed control; type: in vivo; conditions: for Visual Weed Control (%) - 33 DAA IPOHE Obs: soil-applied pre-emergence
Source text: Seeds or nutlets of the desired test plant species were planted in a soil matrix prepared by mixing a loam soil (e.g., 32 percent silt, 23 percent clay, and 45 percent sand, with a pH of about 6.5 and an organic matter content of about 1.9 percent) and calcareous grit in an 80 to 20 ratio. The soil matrix was contained in plastic pots with a volume of 1 quart and a surface area of 83.6 square centimeters (cm^2).
Forms of compound A were applied on an acid equivalent basis.
For treatments comprised of formulated compounds, measured amounts of compounds were placed individually in 25 mL glass vials and diluted in a volume of 1.25% (v/v) Agri-Dex® crop oil concentrate (COC) to obtain 12× stock solutions. […] Application solutions were prepared by adding an appropriate amount of each stock solution (e.g., 1 mL) and diluted to the appropriate final concentrations with the addition of 10 mL of an aqueous mixture of 1.25% (v/v) COC so that the final spray solutions contained 1.25% (v/v) COC.
For treatments comprised of formulated and technical compounds, weighed amounts of the technical materials were placed individually in 25 mL glass vials and dissolved in a volume of 97:3 (v/v) acetone/DMSO to obtain 12× stock solutions, and measured amounts of the formulated compounds were placed individually in 25 mL glass vials and diluted in a volume of 1.5% (v/v) COC or water to obtain 12× stock solutions. […] Application solutions were prepared by adding an appropriate amount of each stock solution (e.g., 1 mL) and diluted to the appropriate final concentrations with the addition of an appropriate amount of an aqueous mixture of 1.5% (v/v) COC so that the final spray solutions contained 1.25% (v/v) COC. As required, additional water and/or 97:3 (v/v) acetone/DMSO was added to individual application solutions so that the final acetone and DMSO concentrations of the application solutions being compared were 8.1% and 0.25%, respectively.
All stock solutions and applications solutions were visually inspected for compound compatibility prior to application. Spray solutions were applied to the soil with an overhead Mandel track sprayer equipped with a 8002E nozzles calibrated to deliver 187 L/ha over an application area of 0.503 m^2 at a spray height of 18 inches (46 cm) above average pot height. Control pots were sprayed in the same manner with the solvent blank.
The treated and control pots were placed in a greenhouse and top watered as needed. […] The pots were maintained in a greenhouse with an approximate 14 hr photoperiod which was maintained at about 29° C. during the day and 26° C. during the night. Nutrients (Peters® Excel 15-5-15 5-Ca 2-Mg) were applied in the irrigation solution as needed and water was added on a regular basis. Supplemental lighting was provided with overhead metal halide 1000-Watt lamps as necessary. After approximately 4 weeks, the condition of the test plants as compared with that of the untreated plants was determined visually and scored on a scale of 0 to 100 percent where 0 corresponds to no injury or growth inhibition and 100 corresponds to complete kill.
as §1, §2

Compound: CCC(CC)Nc1c([N+](=O)[O-])cc(C)c(C)c1[N+](=O)[O-] [Pendimethalin, N-(1-ethylpropyl)-3,4-dimethyl-2,6-dinitrobenzenamine, reference compound]
- Visual Weed Control (%) Obs ([1]; 140 g ai/ha): 0%
- Visual Weed Control (%) Obs ([1]; 280 g ai/ha): 20%
- Visual Weed Control (%) Obs ([1]; 560 g ai/ha): 80%

Compound: COc1c(Cl)ccc(-c2nc(C(=O)OCc3ccccc3)c(Cl)c(N)c2F)c1F [Compound A Benzyl Ester, benzyl ester of 4-amino-3-chloro-5-fluoro-6-(4-chloro-2-fluoro-3-methoxy-phenyl)pyridine-2-carboxylic acid]
- Visual Weed Control (%) Obs ([2]; 27 DAA, 16 g ae/ha): 20%
- Visual Weed Control (%) Obs ([2]; 27 DAA, 32 g ae/ha): 40%
- Visual Weed Control (%) Obs ([2]; 33 DAA, 16 g ae/ha): 0%
- Visual Weed Control (%) Obs ([2]; 33 DAA, 32 g ae/ha): 5%
- Visual Weed Control (%) - 33 DAA IPOHE Obs ([2]; Compound A Benzyl Ester 16 g ae/ha alone, 33 DAA): 0%
- Visual Weed Control (%) - 33 DAA IPOHE Obs ([2]; Compound A Benzyl Ester 32 g ae/ha alone, 33 DAA): 5%
- Visual Weed Control (%) Obs ([1]; 4.38 g ae/ha): 0%
- Visual Weed Control (%) Obs ([1]; 8.75 g ae/ha): 25%
- Visual Weed Control (%) Obs ([1]; 17.5 g ae/ha): 30%

Compound: CSC(=O)c1c(C(F)F)nc(C(F)(F)F)c(C(=O)SC)c1CC(C)C [Dithiopyr, S,S′-dimethyl-2-(difluoromethyl)-4-(2-methylpropyl)-6-(trifluoromethyl)-3,5-pyridinedicarbothioate]
- Visual Weed Control (%) Obs ([2]; 27 DAA, 140 g ai/ha): 3%
- Visual Weed Control (%) Obs ([2]; 27 DAA, 280 g ai/ha): 20%
